Measured values reported in patent publication US20240156959A1, “COMBINATION THERAPY FOR THE TREATMENT OF CANCER COMPRISING AN ANTl-EGFR ANTIBODY AND AN AXL-INHIBITOR” (Yeda Research and Development Co. Ltd., priority 2021, published 2024).

Key:
[1] = system: RAD18; assay: RAD18 immunoprecipitation and immunoblotting in DTPs; assay type: cell-based; conditions: erlotinib 1 μM, 2-9 days
Protocol: FIGS. 3A-G. AXL and RAD18 are functionally linked. (B) PC9 cells were treated with erlotinib (1 μM), or DMSO and RNA was subjected to real time PCR. (C) Transcriptomic data corresponding to 506 patients with lung adenocarcinoma were used to generate an expression correlogram of 19 DNA damage response genes. Pearson correlation coefficients are indicated in each square (see scale code). (D) Parental and RAD18 knockout cells were treated for 9 days with a TKI. Fractions of surviving DTPs are shown. (E) Naïve and RAD18-knockout cells were probed using anti-AXL or anti-RAD18 antibodies. Thereafter, the cells were processed for proximity ligation analysis (red signals). Representative images and PLA quantification are shown. Bar, 20 μm. (F) Cells were treated for 2-9 days with erlotinib (1 μM) or H2O2 (40 μM). Extracts were subjected to immunoprecipitation with an anti-RAD18 or control antibody and immunoprecipitates were immunoblotted. (G) Naïve and AXL-overexpressing cells, along with PC9ER cells, were treated with erlotinib (1 μM). Genomic DNA was isolated after 9 days and the T790M point mutation was determined using digital PCR. Shown are fraction of T790M in cellular DNA. Data are means ±SEM (4 experiments). […]

[2] = system: PC9 tumors; assay: Whole exome sequencing, untreated vs TKI-treated relapsing tumors; assay type: in vivo, mice
Protocol: (§1) Whole exome sequencing: Genomic DNA was isolated using PureLink™ Genomic DNA Mini Kit (Cat# K182002). The qualtiy of the DNA was checked by agarose gel ecltrophoresis and Qubit dsDNA HS Assay kit (Thermo Fisher Scientific). Exome sequencing libraries were prepared according to the manufacturer's instructions (Twist Human core exome kit+RefSeq Panel). Input gDNA (50 ng) from each sample was processed for enzymatic fragmentation, subsequent end repair, and dA-tailing to generate dA-tailed DNA fragments. Twist Universal Adapters were ligated to the dA-tailed DNA fragments, and purified to generate gDNA libraries ready for index introduction through amplification. A gDNA library adapted with Twist CDI primers was amplified and purified. The quality of the amplified library was confirmed using capillary electrophoresis (Bioanalyzer, Agilent). Prior to hybridization, the volume of each library was adjusted using the respective concentration of each Amplified Indexed Library. Ten libraries were multiplexed by 150 ng to give a total mass of 1500 ng. The pre-hybridization solution containing library, probes, RefSeq Panel and blockers was dried using a SpeedVac system and low heat. 0.020 ml of the fast hybridization mix was added to the dried pre-hybridization solution, and then 0.030 ml hybridization enhancer was added on top of the pre-hybridization solution. The mixture was incubated for 5 min at 95° C. and later heated for 2 hours at 60° C. in a thermal cycler (Fast Hybridization). Streptavidin Binding Beads (100 μl) were washed three times with 0.2 ml Fast Binding Buffer and re-suspended in 0.2 ml binding buffer. The hybridization mixture was added to the bead suspension and incubated for 30 min at RT with mixing. The beads were washed once, preheated in Fast Wash Buffer 1 for 5 min at 70° C., and three times with 0.2 ml of Wash Buffer2 for 5min at 48° C. DNA was eluted with 0.045 ml nuclease-free water (Streptavidin Binding Bead slurry). The captured library was amplified using PCR to enrich for fragments. The quality of the amplified libraries was verified by means of automated electrophoresis (Tapestation, Agilent). […]
(§2) Alignment and variant calling: Sequence QC was done through FastqQC 0.11.5 (Andrews 2015). Reads were mapped to human reference genome sequence (hg19; NCBI GRCh37) using bwa 0.7.12 (H. Li and Durbin 2009). […]
(§3) Animal experiments: All animal studies were approved by our institutional board and they were performed in accordance with the guidelines of the Institutional Animal Care and Use Committee (IACUC). […] Tumor volume was estimated using vernier caliper measurements of the longest axis, a/mm, and the perpendicular axis, b/mm Volumes were calculated in accordance with the equation V=(4 π/3)×(a/2)^2×(b/2). […]

[3] = system: AXL-overexpressing tumors; assay: as above; assay type: in vivo, mice
Protocol: as §1, §2, §3

[4] = system: AXL; assay: Re-analysis of AXL mRNA levels in a published patient dataset; assay type: in vivo; conditions: 23 patients, specimens prior to and after treatment, p<0.05
Description: FIGS. 1A-G: Upregulation of AXL is essential for resistance and tolerance. (A) PC9 cells (2×10^6) were subcutaneously implanted in nude mice. […] Tumor volumes are presented (average ±SEM). (B) 3-4 mice from each group presented in A were euthanized when tumors reached 1,500 mm 3 Tumors were extracted and subjected to immunoblotting. Tubulin (TUB) served as the loading control. (C and D) AXL-overexpressing (C) and AXL-knockout PC9 cells (2×10^6, D), along with naïve cells, were subcutaneously implanted in mice. When tumors became palpable, mice were randomized and treated as in A. (E) Data were re-analyzed for AXL mRNA levels in 23 patients with EGFR+NSCLC. Specimens (total=53) were collected at several time points, prior to and after treatment with osimertinib. (F and G) AXL-overexpressing (OX; F) or AXL-knockout PC9 cells (KO; G), along with naïve cells, were untreated or treated with TKIs (1 or 3 μM). Drugs and media were refreshed on day 3 and 6. On day 9, remaining cells (DTPs) were fixed, stained and quantified. Averages±S.D. (triplicates) are shown.

SMILES: C#Cc1cccc(Nc2ncnc3cc(OCCOC)c(OCCOC)cc23)c1 [erlotinib]
- ubiquitination of PCNA [1]: increased ubiquitination of PCNA
- ubiquitination of RAD18 [1]: reduced ubiquitination of RAD18
- increase in base alterations in relapsing tumors [2]: 2.31 fold
- increase in base alterations in relapsing tumors [3]: 2.42 fold

SMILES: C=CC(=O)Nc1cc(Nc2nccc(-c3cn(C)c4ccccc34)n2)c(OC)cc1N(C)CCN(C)C [osimertinib]
- AXL mRNA levels in EGFR tumors of patients [4]: AXL up-regulation
- increase in base alterations in relapsing tumors [2]: 2.37 fold
- increase in base alterations in relapsing tumors [3]: 2.52 fold
